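Tested at 5 concentrations; 48 h exposure; 96-well plates; endpoints linearly interpolated, else capped at highest concentration. GI50: concentration for 50% inhibition of growth.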 Active and inactive are the calls of the source. Rule as the data show it: active = GI50 up to about 1.1 µM and inactive = higher.
Key:
Experiment in all cases: DTP human tumour cell line panel, 48 h
LXFL 529 = system: LXFL 529
OVCAR-3 = system: OVCAR-3
SK-MEL-28 = system: SK-MEL-28
MOLT-4 = system: MOLT-4
NCI-H460 = system: NCI-H460
TK-10 = system: TK-10
NCI-H226 = system: NCI-H226
SF-539 = system: SF-539
HCC 2998 = system: HCC 2998
XF498 = system: XF498
SNB-75 = system: SNB-75
NCI-H522 = system: NCI-H522
HCT-15 = system: HCT-15
OVCAR-5 = system: OVCAR-5
RPMI-8226 = system: RPMI-8226
UACC-62 = system: UACC-62
786-0 = system: 786-0
KM-20L2 = system: KM-20L2
SF-268 = system: SF-268
NCI-H23 = system: NCI-H23
OVCAR-4 = system: OVCAR-4
LOX IMVI = system: LOX IMVI
KM12 = system: KM12
HOP-92 = system: HOP-92
ACHN = system: ACHN
M19-MEL = system: M19-MEL
A498 = system: A498
UO-31 = system: UO-31
EKVX = system: EKVX
K562 = system: K562
HT-29 = system: HT-29
SNB-19 = system: SNB-19
SN12C = system: SN12C
SR = system: SR
OVCAR-8 = system: OVCAR-8
U-251 = system: U-251
RXF 631 = system: RXF 631
A549 = system: A549
Malme-3M = system: Malme-3M
SF-295 = system: SF-295
SK-OV-3 = system: SK-OV-3
HL-60 = system: HL-60
DMS-273 = system: DMS-273
HOP-62 = system: HOP-62
HOP-18 = system: HOP-18
CAKI-1 = system: CAKI-1
COLO 205 = system: COLO 205
IGROV-1 = system: IGROV-1
DLD-1 = system: DLD-1
SW-620 = system: SW-620
M14 = system: M14
HCT-116 = system: HCT-116
RXF 393 = system: RXF 393
SK-MEL-5 = system: SK-MEL-5
UACC-257 = system: UACC-257
SNB-78 = system: SNB-78
CCRF-CEM = system: CCRF-CEM
SK-MEL-2 = system: SK-MEL-2

For `CN1CCC(SC2Cc3cc(Cl)ccc3Sc3ccccc32)CC1` (centres undefined), the GI50 (LXFL 529) was 13.1 µM (inactive), the GI50 (OVCAR-3) was 13.6 µM (inactive) and the GI50 (SK-MEL-28) was 2.12 µM (inactive). For the same molecule, the GI50 (MOLT-4) was 4.24 µM (inactive), the GI50 (NCI-H460) was 12.2 µM (inactive) and the GI50 (TK-10) was 13 µM (inactive). For the same molecule, the GI50 (NCI-H226) was 15.1 µM (inactive), the GI50 (SF-539) was 16.4 µM (inactive) and the GI50 (HCC 2998) was 8.93 µM (inactive). For the same molecule, the GI50 (XF498) was 16 µM (inactive), the GI50 (SNB-75) was 8.79 µM (inactive) and the GI50 (NCI-H522) was 13.9 µM (inactive). The GI50 (HCT-15) was 15.7 µM, the GI50 (OVCAR-5) was 16.7 µM (inactive) and the GI50 (RPMI-8226) was 7.29 µM (inactive). For the same molecule, the GI50 (UACC-62) was 3.33 µM (inactive), the GI50 (786-0) was 13 µM (inactive) and the GI50 (KM-20L2) was 5.27 µM (inactive). For the same molecule, the GI50 (SF-268) was 11.8 µM (inactive), the GI50 (NCI-H23) was 14.1 µM (inactive) and the GI50 (OVCAR-4) was 14.7 µM (inactive). For the same molecule, the GI50 (LOX IMVI) was 11.5 µM (inactive), the GI50 (KM12) was 10.3 µM (inactive) and the GI50 (HOP-92) was 11.7 µM (inactive). The GI50 (ACHN) was 14.6 µM (inactive), the GI50 (M19-MEL) was 12.7 µM (inactive) and the GI50 (A498) was 16.1 µM (inactive). The GI50 (UO-31) was 3.86 µM (inactive), the GI50 (EKVX) was 18.5 µM (inactive) and the GI50 (K562) was 5.04 µM (inactive). For the same molecule, the GI50 (HT-29) was 4.24 µM (inactive), the GI50 (SNB-19) was 15.6 µM (inactive) and the GI50 (SN12C) was 14.6 µM (inactive). For the same molecule, the GI50 (SR) was 8.18 µM (inactive), the GI50 (OVCAR-8) was 17.3 µM (inactive) and the GI50 (U-251) was 13.6 µM (inactive). For the same molecule, the GI50 (RXF 631) was 13.3 µM (inactive), the GI50 (A549) was 15.3 µM (inactive) and the GI50 (Malme-3M) was 14.2 µM (inactive). The GI50 (SF-295) was 15.9 µM (inactive), the GI50 (SK-OV-3) was 15.8 µM (inactive) and the GI50 (HL-60) was 4.15 µM (inactive). For the same molecule, the GI50 (DMS-273) was 12.5 µM (inactive), the GI50 (HOP-62) was > 10 µM (inactive) and the GI50 (HOP-18) was 13.5 µM (inactive). The GI50 (CAKI-1) was 10.7 µM (inactive), the GI50 (COLO 205) was 12.9 µM (inactive) and the GI50 (IGROV-1) was 14.7 µM (inactive). For the same molecule, the GI50 (DLD-1) was 14 µM (inactive), the GI50 (SW-620) was 13.6 µM (inactive) and the GI50 (M14) was 4 µM (inactive). The GI50 (HCT-116) was 10.4 µM (inactive), the GI50 (RXF 393) was 3.66 µM (inactive) and the GI50 (SK-MEL-5) was 13.5 µM (inactive). For the same molecule, the GI50 (UACC-257) was 7.96 µM (inactive).

For `Cc1cc(C)c(-c2noc(-c3ccc(Cl)cc3)c2C2=NCCN2)c(C)c1`, the GI50 (LXFL 529) was 19.9 µM (inactive), the GI50 (OVCAR-3) was 21 µM (inactive) and the GI50 (SK-MEL-28) was 17.7 µM (inactive). For the same molecule, the GI50 (MOLT-4) was 16.6 µM (inactive), the GI50 (NCI-H460) was 13.8 µM (inactive) and the GI50 (NCI-H226) was 23.8 µM (inactive). The GI50 (SF-539) was 16.8 µM (inactive), the GI50 (HCC 2998) was 17.8 µM (inactive) and the GI50 (XF498) was 21.4 µM (inactive). The GI50 (SNB-75) was 17.1 µM (inactive), the GI50 (NCI-H522) was > 10 µM (inactive) and the GI50 (HCT-15) was 22.2 µM. The GI50 (OVCAR-5) was 32.1 µM (inactive), the GI50 (RPMI-8226) was 17.9 µM (inactive) and the GI50 (SNB-78) was 20.1 µM (inactive). The GI50 (UACC-62) was 16.8 µM (inactive), the GI50 (786-0) was 15.3 µM (inactive) and the GI50 (KM-20L2) was 22.2 µM (inactive). The GI50 (SF-268) was 17.3 µM (inactive), the GI50 (NCI-H23) was 17.4 µM (inactive) and the GI50 (OVCAR-4) was 78.9 µM (inactive). For the same molecule, the GI50 (LOX IMVI) was 20.3 µM (inactive), the GI50 (KM12) was 21.6 µM (inactive) and the GI50 (ACHN) was 23.1 µM (inactive). The GI50 (M19-MEL) was 35.8 µM (inactive), the GI50 (UO-31) was 6.38 µM (inactive) and the GI50 (EKVX) was 22.9 µM (inactive). For the same molecule, the GI50 (K562) was 14.8 µM (inactive), the GI50 (CCRF-CEM) was 20.7 µM (inactive) and the GI50 (HT-29) was 13.3 µM (inactive). For the same molecule, the GI50 (SNB-19) was 28.1 µM (inactive), the GI50 (SN12C) was 20.3 µM (inactive) and the GI50 (SR) was 16.4 µM (inactive). The GI50 (OVCAR-8) was > 10 µM (inactive), the GI50 (U-251) was 15.7 µM (inactive) and the GI50 (RXF 631) was 43.3 µM (inactive). The GI50 (A549) was 32.4 µM (inactive), the GI50 (SK-MEL-2) was 22.6 µM (inactive) and the GI50 (Malme-3M) was 20.4 µM (inactive). For the same molecule, the GI50 (SF-295) was 14 µM (inactive), the GI50 (SK-OV-3) was 13.7 µM (inactive) and the GI50 (HL-60) was 14.4 µM (inactive). The GI50 (HOP-62) was 22.1 µM (inactive), the GI50 (HOP-18) was 1.17 µM (inactive) and the GI50 (CAKI-1) was 76.4 µM (inactive). The GI50 (COLO 205) was 16.4 µM (inactive), the GI50 (IGROV-1) was 22.2 µM (inactive) and the GI50 (DLD-1) was 22.4 µM (inactive). For the same molecule, the GI50 (SW-620) was 32.4 µM (inactive), the GI50 (M14) was 12.2 µM (inactive) and the GI50 (HCT-116) was 12.1 µM (inactive). The GI50 (RXF 393) was 14.2 µM (inactive), the GI50 (SK-MEL-5) was 11.7 µM (inactive) and the GI50 (UACC-257) was 17.5 µM (inactive).

Reference: ChEMBL document CHEMBL1201862, “PubChem BioAssay data set” (2004)
